These results are taken from patent US4457864A, “Synthetic analogues of α-melanotropin” (University Patents, Inc., priority 1981, dated 1984).

The subject of one data set is frog (Rana pipiens). Description: in vivo skin darkening (reflectance) in frogs after a single subcutaneous injection. From the text: (§1) [Nle^4, D-Phe^7 ]-α-MSH was examined for its biological effects on melanosome dispersion in vivo, using the frog (Rana pipiens), and the lizard (Anolis carolinensis). See, Hadley, et al. Science, 213, pp. 1025-1027 (1981).
Frogs of both sexes were placed in white plastic containers with a small amount of water under overhead illumi-nation. Under these conditions, the animals became light green in color, presumably because they were not releasing any endogenous α-MSH. Forty-eight hours later, light reflectance from the dorsal surface of the animals was measured with a Photovolt reflectometer. At this time, the frogs were injected subcutaneously with Ringer solution (controls) or Ringer solutions containing α-MSH, [Nle^4 ]-α-MSH, or [Nle^4, D-Phe^7 ]-α-MSH (100 μl of a 10^-4 M solution per 10 g of body weight) to provide a final body concentration of approximately 18 μg/10 g. Subsequent reflectance values were taken at 2- to 3-day intervals for 6 weeks.

The nature of data set [1]: resistance to serum proteolytic enzyme degradation, residual activity by in vitro frog skin bioassay. Type of data set: in vitro ADME. The conditions noted are these: 10 nM peptide, 37° C., Ham's F-10 with 10% horse serum and 2% fetal calf serum, up to 72 hours; FIG. 3. The protocol: Synthetic α-MSH, [Nle^4 ]-α-MSH and [Nle^4, D-Phe^7 ]-α-MSH were incubated (37° C.) under sterile conditions in Corning flasks containing Ham's F-10 media containing 10% horse serum and 2% fetal calf serum. Samples of the media containing the peptides (10 nM) were removed at time zero and at 24, 48 and 72 hours. The samples were immediately frozen and assayed for biological activity using the in vitro frog skin bioassay.

Data set [2] relates to adenylate cyclase in Cloudman S-91 mouse melanoma tumors. Particulars: Sawyer et al.; cited from earlier work.
The conditions of data set [3]: cited from earlier work.
For another data set, the system named is amphibian melanophores. Particulars: Sawyer et al.; cited from earlier work.
The conditions of data set [4]: cited from earlier work. The source holds these as a separate data set.
The conditions of data set [5]: literature reports, cited from earlier work.
For data set [6], the system named is adenylate cyclase in Cloudman S-91 mouse melanoma tumors. Description: melanoma adenylate cyclase activity in vitro ([α-32P]ATP conversion to [32P]cAMP). Type of data set: biochemical. The protocol: (§2) The relative effects of α-MSH, [Nle^4 ]-α-MSH and [Nle^4, D-Phe^7 ]-α-MSH on mammalian melanoma adenylate cyclase activity in vitro were determined by assaying [^α-32 P] ATP conversion to [^32 P]cAMP in Cloudman S-91 mouse melanoma tumors as described in Sawyer, et al., supra. [^32 P]cAMP was isolated, purified and dectected according to Salomon et al., Anal. Biochem., 58, pp. 541-48 (1974).

Data set [7] deals with Cloudman S-91 NCTC 3960 (CCL 53.1) melanoma cells. Description: tyrosinase activity of melanoma cells in tissue culture (3H2O release from [3H]tyrosine). Type of data set: cell-based, mouse. The conditions noted are these: 0.1 μM melanotropin, exposure 0.5, 4 and 8 hr, then 24 hr with [3H]tyrosine; FIG. 2. The protocol: Cloudman S-91 NCTC 3960 (CCL 53.1) melanoma cells were obtained from the American Type Culture Collection Cell Repository and were grown and maintained as described in Fuller, et. al. Pigment Cell, 4 pp. 97-104 (1979). Melanoma cells (2×10^5) were seeded in 25 cm^2 flasks and allowed to attach overnight. At time t=0, the medium in all the flasks was replaced with 4 ml of medium containing 0.1 μM melanotropin (i.e., α-MSH, [Nle^4 ]-α-MSH, or [Nle^4, D-Phe^7 ]-α-MSH) or a control medium containing no melanotropin. At selected time intervals (t=0.5, 4, and 8 hr.) the control medium and melanotropin-containing medium was removed. The cells were carefully rinsed three times with fresh melanotropin-free medium and then exposed to fresh melanotropinfree medium containing [^3 H]-tyrosine (specific activity 48 Ci/mmol; 1 Ci=3.7×10^10 becquerels) at 1 μCi/ml. After 24 hr, this medium was removed and the tyrosinase activity of the melanoma cells was determined by assaying for the ^3 H2 O released from the [^3 H]tyrosine by the action of tyrosinase.
Tyrosinase activities are expressed as percent activity of control cells (i.e., cells not exposed to melanotropin). Each bar represents the mean of four determinations ±SEM.

The subject of data set [8] is frog (Rana pipiens) skin melanophores. Description: in vitro frog skin bioassay, duration of melanosome dispersion. In kind it is cell-based. The protocol:
Variation in biological effects of α-MSH analogues are generally discussed in terms of "potentiation" (increased activity relative to naturally-occurring α-MSH) and "prolongation". Such effects are measured by the classic frog skin bioassay system. See, Shizume, et al., Endocrinology, 54, 553-560 (1954). Because α-MSH has an extremely short half-life in serum (about 2 minutes), synthetic analogues having greater serum stability in addition to greater potency and prolongation characteristics have been sought.
[Nle^4, D-Phe^7 ]-α-MSH was examined with respect to the duration of its ability to stimulate melanosome dispersion in vitro using the frog (Rana pipiens) skin bioassay as described in Shizume, Endocrinology 54, 553-560 (1954).

Data set [9] has as its system lizard (Anolis carolinensis). Description: in vivo skin darkening in lizards after a single injection. Particulars: 18 μg/10 g final body concentration.
Source text: as §1

The subject of data set [10] is adenylate cyclase in Cloudman S-91 mouse melanoma tumors. Description: retention of adenylate cyclase activity after iodination. Type of data set: biochemical. The conditions noted are these: iodinated through use of lacto peroxidase or iodogen. The method, then: as §2
The procedures of Hunter, et al., Nature, 194, pp. 495-496 (1962) were applied to [Nle^4, D-Phe^7 ]-α-MSH and the resultant compound was tested for adenylate cyclase activity as in Example 2.

[11] abbreviates: s.c., 18 μg/10 g, single injection.

“Also recorded” adds a separate entry of the source. Like-named read-outs stand apart in the source and are kept apart here.

[Nle^4 ]-α-MSH: in the data set with frog (Rana pipiens) (setting [11]), the “duration of darkening effect compared with α-MSH” value is “effective for only a slightly longer period than α-MSH”. Also, in data set [1], the “loss of biological activity on incubation in serum-containing medium” value was “lost essentially all biological activity”. The “potency in stimulating melanoma adenylate cyclase activity relative to α-MSH” value in data set [2] is listed as “approximately twice as potent”. In addition, the “biological activity upon subsequent exposure to sodium iodide” value in data set [3] (after chloramine-T, further contact with sodium iodide) is recorded as “inactivated; also recorded: loses activity”. For the same substance, in data set [3] (chloramine-T, oxidant used in peptide iodination), the “biological activity after chloramine-T treatment” value is recorded as “resistant to inactivation; also recorded: retains activity”. In addition, the “potency in dispersing amphibian melanophores relative to α-MSH” value in the data set on amphibian melanophores is reported as “approximately twice as potent”.
As for α-Melanotropin [α-MSH], the “time by which the darkening effect was totally lost” value in the data set on frog (Rana pipiens) (setting [11]) is given as no more than 2 days. In addition, the “biological activity upon oxidative iodination” value in [3] (iodination for radiolabelling) is “essentially inactivated; also recorded: loses biological activity”. Further, in [4], the half-life in serum result is reported as “about 2 minutes”.
In the case of [D-Ser^1]-α-MSH, the “potency / activity relative to the natural hormone” value in data set [5] is “diminished potency”; in [5] (listed as D-Ser^1), “no more active than the native hormone”.
For [D-Tyr^2 ]-α-MSH, the “potency / activity relative to the natural hormone” value in data set [5] was “significantly less potent; also recorded: diminished potency”.
Take [Nle^4, D-Phe^7 ]-α-MSH: the “maximal adenylate cyclase activity compared with α-MSH and [Nle4]-α-MSH” value in [6] (FIG. 1) is reported as “same maximal adenylate cyclase activity”. For the same substance, in data set [6] (dose-response curves of FIG. 1, Cloudman S-91 mouse melanoma), the “potency in stimulating adenylate cyclase relative to the native hormone (α-MSH)” value was 26 times. In [7], the “tyrosinase activity compared with α-MSH and [Nle4]-α-MSH” value is “much more active”. The “duration of melanosome dispersion in vitro” value in [8] was “"prolonged" biological effect superior to α-MSH and [Nle^4 ]-α-MSH”. In addition, the “degree of skin darkening in vivo” value in the data set with frog (Rana pipiens) (s.c., 18 μg/10 g final body concentration) was “Maximum darkening”. Moreover, the “skin darkening remaining at 6 weeks” value in the data set with frog (Rana pipiens) (s.c., 18 μg/10 g, 6 weeks after single injection) was “half-maximum darkening”. The “darkening effect of lower dose compared with higher dose” value in the data set on frog (Rana pipiens) (single injection, 0.18 μg/10 g versus 18 μg/10 g final body concentration) is “nearly as effective as the higher dose”. For the same substance, the “duration of prolonged skin darkening” value in data set [9] is “about 3 days”. Also, the “loss of biological activity on incubation in serum-containing medium” value in data set [1] is given as “almost totally resistant to loss of biological activity”. The “adenylate cyclase activity after iodination” value in data set [10] is reported as “fully retained its activity”.
